Measurements as given in patent publication US20210085742A1, “FRUIT EXTRACT AND USES THEREOF” (THE UNIVERSITY OF NOTTINGHAM, priority 2017, published 2021).

Legend:
[1] = tested on: Neuroligin 1 (5'UTR) luciferase reporter; test: Neuroligin 1 5'UTR firefly luciferase reporter; format: cell-based
Excerpt: (§1) Transient transfection conditions and luciferase reporter constructs—Firefly luciferase reporter plasmids containing the 5′ untranslated regions (UTRs) of the genes Neuroligin 1 and Neuroligin 2 were a kind gift from Professor Nahum Sonenberg (McGill) and used as described by Gkogkas et al, 2013. Nature, 17; 371-377.
(§2) Cells were transfected using FuGene 6 (Roche) following the manufacturer's instructions. The activities of firefly and Renilla luciferase in lysates prepared from transfected cells were measured using a commercially available Luciferase reporter assay system (Promega) and light emission was measured over a 10 sec interval using either a TECAN luminometer. For each experiment described, data was obtained from a minimum of at least 3 biological repetitions per treatment.

cancer cells = test: dose calculation for inhibition of growth of cancer cells; parameters: species or system human
Lung Carcinoma (A549) = test: anti-proliferative activity, wst-1, lung cancer cell line; format: cell-based, human
Experimental: Human tissue culture experiments—lung (A549), ovarian (OVCAR-3, SKOV), breast (MDA-MB-231) and prostate (PC-3) cancer cell lines were chosen to provide a broad profile of different cancer cell types and their response to treatment with the natural compound. Cell were seeded as a mono-layer in 96 well flat bottom Nunc tissue culture plates at a density of 10,000 cells per well and supplemented with RPMI 1640 media (Sigma Aldrich) containing 10% foetal calf serum, penicillin and streptomycin. Cells were then treated for 72 hours with a range of concentrations of MGDG either DMSO soluble, media soluble sample or the pure synthetic molecule. Four biological repetitions were tested for each dose. Activity of each treatment was then assessed using wst-1 reagent (Roche) as per the manufacturer's instructions. Data was visualised using a victor plate reader (Perkin Elmer) at a wavelength of 450 nm.

[2] = tested on: Neuroligin 2 5'UTR luciferase reporter; test: Neuroligin 2 5'UTR firefly luciferase reporter; format: cell-based
Excerpt: as §1, §2

IL-6 = IL-6 inflammatory activity in IL-1α+TNFα treated cells; format: cell-based; conditions: dose of about 10 μg
mice = test: mouse in vivo toxicity study; conditions: oral, 2000 mg/kg everyday for 14 days vs water control

`CC/C=C\C/C=C\C/C=C\CCCCCCCC(=O)OC[C@H](COC1OC(CO)C(O)C(O)C1O)OC(=O)CCCCCCC/C=C\C/C=C\C/C=C\CC` (some centres unmarked) [MGDG, monogalactosyl diacylglycerol] was tested, and the “effect on Neuroligin 1 reporter” value [1] was “can be dampened”, the “reduction in the levels of Neuroligin 1” value ([1]; 10 μM dose, luciferase reporter system) was “about 35%” and the “inhibition in the growth of cancer cells” value (cancer cells; daily dose of approximately 11 mgs, human) was 50%. The “inhibition in the growth of cancer cells” value (cancer cells; dose of approximately 5.5 mgs in a 60kg human) was 30%, the “anti-cancer / anti-proliferative activity” value (Lung Carcinoma (A549)) was “anti-proliferative effects” and the “effect on Neuroligin 2 reporter activity” value [2] was “unaffected”. For the same molecule, the “reduction of IL-6 inflammatory activity” value (IL-6) was roughly 80% and the “survival or weight / toxicity” value (mice) was “no difference in survival or weight”.
